# Target: PD-1/PD-L1 (Homo sapiens (Human), UniProt Q9NZQ7)
# Experiment: PD-1/PD-L1 Homogeneous Time-Resolved Fluorescence (HTRF) Binding Assay
# Conditions: recombinant human PD-1 (3 nM) and PD-L1 (10 nM), 25° C., PBS pH 7.4
# Method in brief: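 Fc-tagged human PD-1 (25-167, 3 nM) and His-tagged PD-L1 (19-238, 10 nM) preincubated with inhibitor 40 min in PBS pH 7.4, 0.05% Tween-20, 0.1% BSA, 1% DMSO, 25 °C. Binding detected by HTRF (Eu anti-IgG/APC anti-His, 665/620 nm) after 60 min; IC50 from percent control activity.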
# Sequence of PD-1/PD-L1 (Q9NZQ7 19-238): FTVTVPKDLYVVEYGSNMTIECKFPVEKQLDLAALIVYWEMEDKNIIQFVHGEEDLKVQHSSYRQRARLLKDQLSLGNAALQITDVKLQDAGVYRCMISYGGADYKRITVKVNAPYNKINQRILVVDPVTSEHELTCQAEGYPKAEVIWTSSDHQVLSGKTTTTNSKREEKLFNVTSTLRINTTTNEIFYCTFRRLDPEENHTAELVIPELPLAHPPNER
row,SMILES,IC50
1,"Cc1c(NC(=O)c2nc3c(n2C)CCN(C2CC(F)(F)C2)C3)cccc1-c1cccc(-c2nc3cc(CN4CC[C@H](C(=O)O)C4)cc(C#N)c3o2)c1C [Example 40, (S)-1-((7-cyano-2-(3′-(5-(3,3-difluorocyclobutyl)-1-methyl-4,5,6,7-tetrahydro-1H-imidazo[4,5-c]pyridine-2-carboxamido)-2,2′-dimethylbiphenyl-3-yl)benzo[d]oxazol-5-yl)methyl)pyrrolidine-3-carboxylic acid]",10 to 100 nM
2,"Cc1c(COc2cc(OCc3cncc(C#N)c3)c(CNCCO)cc2Cl)cccc1-c1cccc(-c2nc3cc(CN4CC[C@@H](C(=O)O)C4)cc(Cl)c3o2)c1C [Example 150, (R)-1-((7-chloro-2-(3′-((2-chloro-5-((5-cyanopyridin-3-yl)methoxy)-4-(((2-hydroxyethyl)amino)methyl)phenoxy)methyl)-2,2′-dimethyl-[1,1′-biphenyl]-3-yl)benzo[d]oxazol-5-yl)methyl)pyrrolidine-3-carboxylic acid]",10 to 100 nM
3,"Cc1c(-c2nc3cc(CN4CCCC[C@H]4C(=O)O)cc(Cl)c3o2)cccc1-c1cccc(NC(=O)c2ccc(CN3CC[C@H](O)C3)cn2)c1Cl [Example 2, (S)-1-((7-chloro-2-(2′-chloro-3′-(5-(((S)-3-hydroxypyrrolidin-1-yl)methyl)picolinamido)-2-methyl-[1,1′-biphenyl]-3-yl)benzo[d]oxazol-5-yl)methyl)piperidine-2-carboxylic acid]",≤ 10 nM
4,"Cc1c(-c2nc3cc(CN4CC[C@@](C)(C(=O)O)C4)cc(C#N)c3o2)cccc1-c1cccc(-c2nc3c(s2)CN(C(=O)CN(C)[C@@H](C)CO)C3)c1C [Example 226, (R)-1-((7-cyano-2-(3′-(5-(2-(((S)-1-hydroxypropan-2-yl)(methyl)amino)acetyl)-5,6-dihydro-4H-pyrrolo[3,4-d]thiazol-2-yl)-2,2′-dimethylbiphenyl-3-yl)benzo[d]oxazol-5-yl)methyl)-3-methylpyrrolidine-3-carboxylic acid]",≤ 10 nM
5,"Cc1c(-c2nc3cc(CN4CC[C@@H](C(=O)O)C4)cc(C#N)c3o2)cccc1-c1cccc(-c2nc3c(s2)CN(C(=O)CN2CC[C@@H](O)C2)C3)c1C [Example 111, (R)-1-((7-cyano-2-(3′-(5-(2-((R)-3-hydroxypyrrolidin-1-yl)acetyl)-5,6-dihydro-4H-pyrrolo[3,4-d]thiazol-2-yl)-2,2′-dimethylbiphenyl-3-yl)benzo[d]oxazol-5-yl)methyl)pyrrolidine-3-carboxylic acid]",≤ 10 nM
6,"Cc1c(-c2nc3cc(CN4CC[C@@H](C(=O)O)C4)cc(C#N)c3o2)cccc1-c1cccc(-c2nc3c(s2)CN(C(=O)CN2CCN(C)CC2)C3)c1C [Example 108, (R)-1-((7-cyano-2-(2,2′-dimethyl-3′-(5-(2-(4-methylpiperazin-1-yl)acetyl)-5,6-dihydro-4H-pyrrolo[3,4-d]thiazol-2-yl)biphenyl-3-yl)benzo[d]oxazol-5-yl)methyl)pyrrolidine-3-carboxylic acid]",≤ 10 nM
7,"Cc1c(-c2nc3cc(CN4CC[C@@H](O)C4)cc(C#N)c3o2)cccc1-c1cccc(-c2nc3c(s2)CN(C(C)C)CC3)c1C [Example 121, (R)-5-((3-hydroxypyrrolidin-1-yl)methyl)-2-(3′-(5-isopropyl-4,5,6,7-tetrahydrothiazolo[5,4-c]pyridin-2-yl)-2,2′-dimethyl-[1,1′-biphenyl]-3-yl)benzo[d]oxazole-7-carbonitrile]",≤ 10 nM
8,"Cc1c(-c2nc3cc(CN4CC[C@@](C)(C(=O)O)C4)cc(C#N)c3o2)cccc1-c1cccc(NC(=O)c2nc3c(n2C)CC(C)N(C)C3)c1Cl (stereo partly drawn) [Example 161, (3R)-1-((2-(2′-chloro-2-methyl-3′-(1,5,6-trimethyl-4,5,6,7-tetrahydro-1H-imidazo[4,5-c]pyridine-2-carboxamido)biphenyl-3-yl)-7-cyanobenzo[d]oxazol-5-yl)methyl)-3-methylpyrrolidine-3-carboxylic acid]",≤ 10 nM
9,"Cc1c(Nc2nccc3cc(CNC[C@H](C)O)cnc23)cccc1-c1cccc(-c2nc3cc(CN4CC[C@@H](C(=O)O)C4)cc(C#N)c3o2)c1C [Example 146, (R)-1-((7-cyano-2-(3′-((3-((((S)-2-hydroxypropyl)amino)methyl)-1,7-naphthyridin-8-yl)amino)-2,2′-dimethyl-[1,1′-biphenyl]-3-yl)benzo[d]oxazol-5-yl)methyl)pyrrolidine-3-carboxylic acid]",≤ 10 nM
10,"Cc1c(-c2nc3cc(CN4CC[C@@](C)(C(=O)O)C4)cc(C#N)c3o2)cccc1-c1cccc(NC(=O)c2nc3c(n2C)CC(C)NC3)c1Cl (stereo partly drawn) [Example 163, (3R)-1-((2-(2′-chloro-3′-(1,6-dimethyl-4,5,6,7-tetrahydro-1H-imidazo[4,5-c]pyridine-2-carboxamido)-2-methylbiphenyl-3-yl)-7-cyanobenzo[d]oxazol-5-yl)methyl)-3-methylpyrrolidine-3-carboxylic acid]",≤ 10 nM

# Results, then the molecule that gave them:
row,IC50,SMILES
1,≤ 10 nM,"Cc1c(-c2nc3cc(CN4CC[C@@H](C(=O)O)C4)cc(C#N)c3o2)cccc1-c1cccc(-c2nc3c(s2)CN(C(=O)CN2CC[C@H](O)C2)C3)c1C [Example 112, (R)-1-((7-cyano-2-(3′-(5-(2-((S)-3-hydroxypyrrolidin-1-yl)acetyl)-5,6-dihydro-4H-pyrrolo[3,4-d]thiazol-2-yl)-2,2′-dimethylbiphenyl-3-yl)benzo[d]oxazol-5-yl)methyl)pyrrolidine-3-carboxylic acid]"
2,≤ 10 nM,"Cc1c(-c2nc3cc(CN4CC5(C(=O)O)CC4C5)cc(C#N)c3o2)cccc1-c1cccc(-c2nc3c(s2)CN(C(=O)CN(C)C)C3)c1C [Example 235, 2-((7-cyano-2-(3′-(5-(2-(dimethylamino)acetyl)-5,6-dihydro-4H-pyrrolo[3,4-d]thiazol-2-yl)-2,2′-dimethylbiphenyl-3-yl)benzo[d]oxazol-5-yl)methyl)-2-azabicyclo[2.1.1]hexane-4-carboxylic acid]"
3,≤ 10 nM,"Cc1c(-c2nc3cc(CN4CC[C@@H](O)C4)cc(C#N)c3o2)cccc1-c1cccc(NC(=O)c2nc3c(n2C)CCN(Cc2ccc(B(O)O)cc2)C3)c1Cl [Example 240, (R)-4-((2-(2-chloro-3′-(7-cyano-5-((3-hydroxypyrrolidin-1-yl)methyl)benzo[d]oxazol-2-yl)-2′-methylbiphenyl-3-ylcarbamoyl)-1-methyl-6,7-dihydro-1H-imidazo[4,5-c]pyridin-5(4H)-yl)methyl)phenylboronic acid]"
4,≤ 10 nM,"Cc1c(Nc2nccc3cc(CN4CC[C@H](O)C4)cnc23)cccc1-c1cccc(-c2nc3cc(CN4CCC(C(=O)O)CC4)cc(Cl)c3o2)c1C [Example 22, (S)-1-((7-chloro-2-(3′-(3-((3-hydroxypyrrolidin-1-yl)methyl)-1,7-naphthyridin-8-ylamino)-2,2′-dimethylbiphenyl-3-yl)benzo[d]oxazol-5-yl)methyl)piperidine-4-carboxylic acid]"
5,≤ 10 nM,"Cc1nc(CN2CC[C@H](O)C2)cnc1OCc1cccc(-c2cccc(-c3nc4cc(CN5CCC(C(=O)O)C5)cc(Cl)c4o3)c2C)c1Cl (stereo partly drawn) [Example 153, 1-((7-chloro-2-(2′-chloro-3′-((5-(((S)-3-hydroxypyrrolidin-1-yl)methyl)-3-methylpyrazin-2-yloxy)methyl)-2-methylbiphenyl-3-yl)benzo[d]oxazol-5-yl)methyl)pyrrolidine-3-carboxylic acid]"
6,≤ 10 nM,"Cc1c(-c2nc3c(o2)CN(C(=O)CN(C)C)C3)cccc1-c1cccc(-c2nc3cc(CN4CC[C@@](C)(C(=O)O)C4)cc(C#N)c3o2)c1C [Example 245, (R)-1-((7-cyano-2-(3′-(5-(dimethylglycyl)-5,6-dihydro-4H-pyrrolo[3,4-d]oxazol-2-yl)-2,2′-dimethyl[1,1′-biphenyl]-3-yl)benzo[d]oxazol-5-yl)methyl)-3-methylpyrrolidine-3-carboxylic acid]"
7,≤ 10 nM,"Cc1c(-c2nc3c(s2)CNCC3)cccc1-c1cccc(-c2nc3cc(CN4CC[C@@H](C(=O)O)C4)cc(C#N)c3o2)c1Cl [Example 69, (R)-1-((2-(2-chloro-2′-methyl-3′-(4,5,6,7-tetrahydrothiazolo[5,4-c]pyridin-2-yl)-[1,1′-biphenyl]-3-yl)-7-cyanobenzo[d]oxazol-5-yl)methyl)pyrrolidine-3-carboxylic acid]"
8,≤ 10 nM,"Cc1c(-c2nc3cc(CN4CCC(C(=O)O)CC4)cc(C#N)c3o2)cccc1-c1cccc(NC(=O)c2nc3c(n2C)CCNC3)c1Cl [Example 154, 1-((2-(2′-chloro-2-methyl-3′-(1-methyl-4,5,6,7-tetrahydro-1H-imidazo[4,5-c]pyridine-2-carboxamido)biphenyl-3-yl)-7-cyanobenzo[d]oxazol-5-yl)methyl)piperidine-4-carboxylic acid]"
9,≤ 10 nM,"Cc1c(-c2nc3c(o2)CN(C(=O)CN2CCN(C)CC2)C3)cccc1-c1cccc(-c2nc3cc(CN4CC5CC4CC5C(=O)O)cc(C#N)c3o2)c1C (stereo not drawn) [Example 253, 2-((7-cyano-2-(2,2′-dimethyl-3,-(5-(2-(4-methylpiperazin-1-yl)acetyl)-5,6-dihydro-4H-pyrrolo[3,4-d]oxazol-2-yl)-[1,1′-biphenyl]-3-yl)benzo[d]oxazol-5-yl)methyl)-2-azabicyclo[2.2.1]heptane-5-carboxylic acid]"
10,≤ 10 nM,"Cc1c(Nc2nccc3cc(CN4CC[C@@H](O)C4)cnc23)cccc1-c1cccc(-c2nc3cc(CN4CC5(CC(C(=O)O)C5)C4)cc(C#N)c3o2)c1C [Example 177, 2-((7-cyano-2-(3′-(3-(((R)-3-hydroxypyrrolidin-1-yl)methyl)-1,7-naphthyridin-8-ylamino)-2,2′-dimethylbiphenyl-3-yl)benzo[d]oxazol-5-yl)methyl)-2-azaspiro[3,3]heptane-6-carboxylic acid]"
11,≤ 10 nM,"Cc1c(Nc2nccc3cc(C(C)N4CC[C@@H](O)C4)cnc23)cccc1-c1cccc(-c2nc3cc(CN4CC[C@@H](C(=O)O)C4)cc(C#N)c3o2)c1C (stereo partly drawn) [Example 140, (3R)-1-((7-cyano-2-(3′-(3-(1-((R)-3-hydroxypyrrolidin-1-yl)ethyl)-1,7-naphthyridin-8-ylamino)-2,2′-dimethylbiphenyl-3-yl)benzo[d]oxazol-5-yl)methyl)pyrrolidine-3-carboxylic acid]"

# From patent US10308644B2, “Heterocyclic compounds as immunomodulators” (Incyte Corporation, priority 2016, dated 2019)
